These results are taken from PMC11905876, “Population Pharmacokinetic Modeling of Certepetide in Human Subjects With Metastatic Pancreatic Ductal Adenocarcinoma” (Clinical Pharmacology in Drug Development, 2025).

Data set [1] can be described thus: Population pharmacokinetic analysis of certepetide plasma concentrations (first-in-human trial NCT03517176). Type of data set: in vivo. To be noted: for WT on Vc, effect of weight on Vc / WT on Vp, effect of weight on Vp: power model exponent. How it is done:
The clinical aspects of this study were conducted at 3 clinical sites in Australia. All subjects gave their informed consent. The study enrolled subjects with metastatic PDAC and was a rising dose design, with certepetide doses of 0.2, 0.8, 1.6, and 3.2 mg/kg body weight. Each subject received a certepetide monotherapy run‐in followed by 28‐day cycles of certepetide with standard‐of‐care chemotherapy (nab‐paclitaxel and gemcitabine), as previously described.[19] Each 28‐day cycle involved dosing with nab‐paclitaxel, gemcitabine, and certepetide on days 1, 8, and 15. In each dosing instance, nab‐paclitaxel was given first intravenously at a dose of 125 mg/m^2 over 30 minutes. This was immediately followed by the administration of certepetide as a slow intravenous push over 1 minute. Gemcitabine was given as an intravenous infusion at a dose of 1000 mg/m^2 over 30 minutes. Samples for PK analysis were collected before certepetide dosing and at 3, 15, and 30 minutes and 1, 3, and 6 hours after completion of the certepetide infusion. PK collections were performed during a monotherapy run‐in period and on day 1 of chemotherapy cycles 1 and 6. Modeling was performed with all available data.
Certepetide concentrations in human plasma were determined using a liquid chromatography‐tandem mass spectrometry method across a concentration range of 50.0‐2500 ng/mL, with 50.0 ng/mL as the lower limit of quantification. Briefly, a plasma sample was spiked with a deuterated internal standard and then precipitated by methanol. After centrifugation, the supernatant was transferred to a clean tube and evaporated under nitrogen. Following reconstitution with 5% methanol:water, the sample was injected into a Shimadzu Nexera UPLC that used a Kinetex EVO‐C18 column for separation using first mobile phase A (0.1% formic acid in deionized water) followed by mobile phase B (0.1% formic acid in methanol). The multiple reaction monitoring transition was monitored on an ABSciex QTRAP 5500 mass spectrometer. The transitions used for certepetide and deuterated certepetide (+6) were 494.9 → 70.1 and 497.7 → 75.0, respectively. For intraday runs, the average accuracy and precision were 10.2% and 9.6%, respectively, at a concentration of 150 ng/mL. The inter‐day accuracy and precision were 10.2% and 9.7%, respectively.
The PK analysis dataset was composed of actual dates and times of dose and concentration samples. Post‐dose PK concentration data below the limit of quantification were accounted for using the M1 method (ie, excluded from the analysis).[22] Subject covariates at baseline were derived from the source data at the baseline visit, the screening visit, or another visit before the start of certepetide administration.
NONMEM software (version 7.5.1, ICON Development Solutions)[23] was used to perform nonlinear mixed‐effects modeling. Data assembly, graphical analyses, and model simulations were performed using NONMEM (version 7.5.1) and R (version 4.3.1).
A 2‐compartment model with linear elimination was used as the starting point for model development. Interindividual variability was included in structural model parameters (eg, central volume of distribution [Vc], clearance [CL], peripheral volume of distribution [Vp], and distribution clearance [Q]). Interindividual variability, assumed to have log‐normal distribution, was calculated using Equation (1). (1) θP,i=θP,typical·e^ηP,i
The residual variance was initially modeled using an additive and proportional error model (Equation 4), which accounted for […], assay error, model misspecification, and any potential data issues (eg, incorrect dose or sample collection times). (4) Yij=IPREDij×1+ε1,ij+ε2,ij
Model development continued by adding covariates in a stepwise fashion and assessing the change in objective function value (OFV). […]

The conditions of data set [2]: autoradiography; ref data on file; cited from earlier work. How it is done: (§1) Certepetide is administered as a slow intravenous push over 1 minute shortly after the administration of chemotherapy and/or immunotherapy. Certepetide is thought to be metabolized into its component amino acids, as expected for small peptides.
Data set [3] has as its system plasma proteins. Conditions: ref data on file; cited from earlier work. How it is done: as §1
For data set [4], the system named is patients with unresectable metastatic PDAC. Details: method as in PMID 35803294, PMID 36982773. Conditions: cited from earlier work.
Setting [5] is: final population PK model, reference 70 kg.
The mark [6] stands for this setting: interim population PK model with body weight and age on clearance, typical value.

In the case of `CC(=O)N[C@H]1CSSC[C@@H](C(N)=O)NC(=O)[C@H](CC(=O)O)NC(=O)[C@@H]2CCCN2C(=O)CNC(=O)[C@H](CCCCN)NC(=O)[C@H](CC(=O)O)NC(=O)CNC(=O)[C@H](CCCNC(=N)N)NC1=O` [Certepetide], the “Dose linearity of PK” value in data set [1] (concentration-time and dose-normalized curves at 0.2, 0.8, 1.6 and 3.2 mg/kg) is “linear PKs”. Moreover, the “Vc, central volume of distribution” value is on record as 5.87 L in data set [1] (final population PK model (2-compartment, linear elimination, NONMEM), 31 patients with metastatic PDAC, 0.2-3.2 mg/kg IV push over 1 min with nab-paclitaxel and gemcitabine, plasma LC-MS/MS, typical value, reference 70 kg); 5.87 L in data set [1] (interim population PK model with body weight and age on clearance, 31 patients with metastatic PDAC, IV, typical value). Also, the “Q, intercompartmental clearance” value was determined as 24.9 L/h in data set [1] (final population PK model, 31 patients with metastatic PDAC, IV, typical value) and 25.0 L/h in data set [1] (setting [6]). Further, in data set [1] (final population PK model, 31 patients with metastatic PDAC, IV, typical value at reference CrCL 90 mL/min, purely model-derived), the “CLR, renal clearance (dependent on CrCL)” value is 4.32 L/h. For the same molecule, the “Vp, peripheral volume of distribution” value in data set [1] (final population PK model, 31 patients with metastatic PDAC, IV, typical value, reference 70 kg) was determined as 10.3 L; in data set [1] (setting [6]), 10.3 L. Also, in data set [1] (final population PK model, 31 patients with metastatic PDAC, IV, typical value, purely model-derived), the “CLNR, nonrenal clearance (independent of CrCL)” value is 2.56 L/h. Further, the “WT on Vc, effect of weight on Vc” value is 0.933 in data set [1] (setting [5]) and 0.940 in data set [1] (interim population PK model). Moreover, the “WT on Vp, effect of weight on Vp” value in data set [1] (setting [5]) is recorded as 0.879; in data set [1] (interim population PK model) it was 0.885. Moreover, the clearance in data set [1] (human, plasma, iv, interim population PK model with body weight and age on clearance, typical value, reference 70 kg, 60 years, read-out: CL, clearance (converted)) is 118 mL/min. In data set [2], the Route of elimination entry is given as “primarily undergoes renal elimination”. Moreover, in data set [3], the Plasma protein binding entry is “does not bind to plasma proteins”. Moreover, the “Patients with ≥50% reduction in CA19-9” value in data set [4] (cycle 5, day 1, certepetide with nab-paclitaxel and gemcitabine) is 20 out of 22. The “Dose-limiting toxicities associated with the study drug” value in data set [4] (doses 0.2-3.2 mg/kg) is listed as “no dose‐limiting toxicities”.
